Reference: PMC11913174 (Organic & biomolecular chemistry, 2024)

Tests used:
[1] = test system: chloroquine-resistant Dd2 Plasmodium falciparum parasites; test: SYBR Green I antiplasmodial assay against chloroquine-resistant Dd2 parasites; format: cell-based; details: DD2, read-out: EC50 against Dd2
[2] = test system: 3D7 (wild-type) parasites; test: Antiplasmodial dose-response against 3D7; format: cell-based; details: Plasmodium falciparum, 3D7, read-out: EC50 against 3D7

EC50 [1]: > 100 µM
EC50 [2]: > 100 µM
Structure (SMILES): COC(=O)[C@H]1[C@H]2C[C@@H]3c4[nH]c5cc(OC)ccc5c4CCN3C[C@H]2C[C@@H](OC(=O)c2cc(OC)c(OC)c(OC)c2)[C@@H]1OC [reserpine]
